The values that follow come from patent US11447533B2, “Antimicrobial and anticancer peptides and conjugates and compositions, methods, articles and kits relating thereto” (George Mason Research Foundation, Inc., priority 2018, dated 2022).

Data set [1] has as its system multi-drug resistant (MDR) Acinetobacter baumannii (ATCC BAA-1795). Briefly: Antimicrobial efficacy against ESKAPE pathogens. The class given is cell-based. Particulars: mammalian serum. The procedure:
(§1) Antimicrobial Studies. The phosphate buffers used for antimicrobial assays were supplemented with non-nitrogenous energy source, 0.1% (w/v) glucose. To conduct antimicrobial assays, bacterial strains were first suspended in respective buffers. E. coli (ATCC 25922) and B. cereus (ATCC 11778) were grown in MHB II up to OD600 nm˜1 and stored as frozen stock in 20% glycerol at −80° C. Occasionally they were thawed and enumerated by serial dilution and spreading on MHB II agar plates. The concentrations of the frozen stocks of E. coli and B. cereus strains were 1.0-1.1*10^8 CFU/mL with OD600 nm˜0.8. In case of other bacterial strains, they were grown on the days of experiment up to OD600 nm˜1-1.5 and then adjusted to OD600 nm˜0.8. The growth media of the drug-resistant bacterial strains were supplemented with few of the respective antibiotics against which they are resistant. 200 μL of the 0.8 OD600 nm culture were added to 10 mL of the respective buffer to obtain a suspension which was used to incubate with equal volumes of peptide solution in the same buffer.
(§2) Antimicrobial assays in different phosphate buffers and serum were conducted by adapting, with necessary modifications a fast high-throughput method based on Virtual Colony Count technique and later modified by incorporating the use of resazurin. At first serial dilution of a microbial strain in respective buffer was poured in the wells of 96 well polypropylene microplate and was then added with same volume of 2× MHB II supplemented with 80 μg/mL resazurin and incubated at 35° C. in a Gemini EM Microplate Reader (Molecular Devices) overnight with intermittent shaking. As the microbe grows it reduces non-fluorescent resazurin to fluorescent resorufin and the fluorescent intensity of each well were measured (excitation=570 nm, emission=590 nm) each 5 min for 15 hours. The time (t, min) to reach a certain fluorescence (RFU=20000 with respect to the starting fluorescence) was correlated with the initial bacterial concentration (in CFU/mL) in the particular well to obtain a calibration plot of the form: Log([Bacteria],CFU/mL)=b+m*t Equation 4: […]
(§3) To obtain antimicrobial efficacy of the peptides, 50 μL of serially diluted peptide in a buffer was incubated with 50 μL microbial suspension in the same buffer for 3 hours in black polypropylene 96 well plate. After incubation the wells were added with 100 μL of 2× MHB II supplemented with 80 μg/mL resazurin and then incubated with continuous fluorescence reading for overnight time period as described earlier. The surviving microbial population (CFU/mL) in each well were calculated by first finding the time to reach a fluorescence of RFU=20000 and the correlation (4) for the specific microbial strain and buffer. % Survival represents the proportion of viable cells in peptide treated cells relative to cells treated with the respective buffer alone. Equation 5: […]
(§4) Finally, the antimicrobial effectiveness of each peptide against the particular microbial strain in the specific buffer was determined by plotting % microbial survival as a function of the log of the concentration of the peptide and fitting the resulting data to a variable-slope sigmoidal regression model (equation 6). […]
(§5) ATRA1-R3W2-HYD, NA-CATH and PMB were evaluated for their effectiveness in mammalian serum conditions against pathogenic bacteria of both normal and drug-resistant strains. […]

Another data set relates to Pseudomonas aeruginosa. Briefly: Antimicrobial efficacy against ESKAPE pathogens. The class given is cell-based. The method, then:
as §1, §2, §3, §4, §5

The subject of a further data set is ESKAPE pathogens. Briefly: Antimicrobial efficacy against ESKAPE pathogens (all other than P. aeruginosa). It counts as cell-based. The note with it: mammalian serum; susceptible and drug-resistant strains. The method, then: FIG. 8 is a graph showing antimicrobial efficacies of ATRA1-R3W2-HYD (blue), NA-CATH (dark orange) and PMB (green) against selected members of ESKAPE (Enterococcus faecium, Staphylococcus aureus, Klebsiella pneumoniae, Acinetobacter baumannii, Pseudomonas aeruginosa, and Enterobacter) pathogens. Both susceptible and drug-resistant strains were used. All the bacteria, except Pseudomonas aeruginosa, were tested under mammalian serum. P. aeruginosa results were obtained from testing in DPBS. The results are presented as mean of tests in triplicate with error-bars depicting the 95% confidence interval of the mean.
Antimicrobial Studies. The phosphate buffers used for antimicrobial assays were supplemented with non-nitrogenous energy source, 0.1% (w/v) glucose. […]
Antimicrobial assays in different phosphate buffers and serum were conducted by adapting, with necessary modifications a fast high-throughput method based on Virtual Colony Count technique and later modified by incorporating the use of resazurin. At first serial dilution of a microbial strain in respective buffer was poured in the wells of 96 well polypropylene microplate and was then added with same volume of 2× MHB II supplemented with 80 μg/mL resazurin and incubated at 35° C. in a Gemini EM Microplate Reader (Molecular Devices) overnight with intermittent shaking. […]

Data set [2] relates to H-358 lung epithelial cancer cells. Briefly: Cytotoxicity (Alamar blue). The class given is cell-based, human. Particulars: ~6 hours, 10% fetal bovine serum. The method, then: FIG. 12 is a graph showing comparison of toxicities against Lung Primary Epithelial cells and Lung Cancerous Epithelial Cells, derived from H358 cell-line. Non-linear regression analysis of six-hour cytotoxicity data was performed to identify the concentration to achieve 50% lethality (LD50) for each toxic peptide. Each peptide was tested in triplicate.
Cytotoxicity. Cells were seeded in complete growth medium (Minimal Essential Medium, MEMα, supplemented with 10% Fetal Bovine Serum) into a culture-treated 96-well plate at a density of 25000 cells per well. After 24 hours, culture media was aspirated and replaced with media containing the selected peptide. No-serum experiments were conducted in Opti-MEM I reduced serum media (ThermoFisher, 31985062) and 10% serum experiments were performed in complete growth medium. In all cases, DBPS was used as a vehicle only control and buffer to serially dilute the peptides. After exposure to the peptides or vehicle-alone for the defined period, Alamar blue dye (resazurin) was added directly to the media and allowed to incubate for two hours. Following incubation, A570/A600 measurements were made to calculate reduction of resazurin dye to resorufin. A ratio of reduction in treated versus untreated cells was calculated in order to determine overall cell viability. The human cells were always maintained in a 37° C. incubator under 5% CO2. […]

Data set [3] has as its system primary lung epithelium cells. Briefly: Cytotoxicity (Alamar blue). Particulars: ~16 hours (overnight), reduced serum conditions. It counts as cell-based, human. The method, then: FIGS. 11A-11B are graphs showing cytotoxicity against primary lung epithelium cells in serum-free condition. Cells were seeded in complete growth medium (Minimal essential medium supplemented with 10% fetal bovine serum) at near-confluence into a 96-well plate and allowed to settle for 24-hours. Media was then replaced to OptiMEM I reduced serum medium containing peptide or vehicle alone (DBPS) and cells were incubated overnight (16 hours). A resazurin based dye (Alamar blue) was added directly to media and conversion of resazurin to resorufin was evaluated following two hours. % Survival represents the proportion of viable cells in peptide treated cells relative to cells treated with vehicle alone. […] Each peptide was tested in triplicate.
FIG. 12 is a graph showing comparison of toxicities against Lung Primary Epithelial cells and Lung Cancerous Epithelial Cells, derived from H358 cell-line. […] Each peptide was tested in triplicate.
Cytotoxicity. Cells were seeded in complete growth medium (Minimal Essential Medium, MEMα, supplemented with 10% Fetal Bovine Serum) into a culture-treated 96-well plate at a density of 25000 cells per well. After 24 hours, culture media was aspirated and replaced with media containing the selected peptide. No-serum experiments were conducted in Opti-MEM I reduced serum media (ThermoFisher, 31985062) and 10% serum experiments were performed in complete growth medium. In all cases, DBPS was used as a vehicle only control and buffer to serially dilute the peptides. After exposure to the peptides or vehicle-alone for the defined period, Alamar blue dye (resazurin) was added directly to the media and allowed to incubate for two hours. Following incubation, A570/A600 measurements were made to calculate reduction of resazurin dye to resorufin. A ratio of reduction in treated versus untreated cells was calculated in order to determine overall cell viability. The human cells were always maintained in a 37° C. incubator under 5% CO2.
On the technique in general: The colour change of resazurin is a common sign of viable cells or microbes.

Take “RRWKRFFKRWKGGVIGVTFPF (SEQ ID NO: 50) [ATRA1-R3W2-HYD, ATRA1-R3W2 with hydrophobic tail of NA-CATH joined by -GG-]”: the “antimicrobial effectiveness, in words” value in data set [1] is “effective in mammalian serum”; in the data set on Pseudomonas aeruginosa (DPBS) it was “good bactericidal properties”; in the data set with Pseudomonas aeruginosa (mammalian serum), “did not demonstrate antimicrobial effectiveness”; in the data set with ESKAPE pathogens it was “highly effective, though in lower degree than PMB”. Besides, in data set [2], the LD50 was approximately 24.5 µM. Besides, the “concentration decreasing resazurin reduction by 50% (LD50)” value in data set [3] is approximately 50 µM. Besides, in data set [3], the “concentration over which significant toxicity was observed” value was approximately 50 µM.
